These results are taken from patent publication US7354711B2, “Methods for inhibiting immunostimulatory DNA associated responses” (University of Iowa Research Foundation, priority 1997, dated 2008).

The subject of assay [1] is WEHI 231 cells. The assay is described as follows: DNA fragmentation assay (α-sIgM-induced apoptosis). The class given is cell-based, mouse. The settings on record: 0.1 μM quinacrine, 6 μg/mL ODN 1760, α-sIgM, 16 hours. The procedure:
The DNA fragmentation assay was carried out generally as follows. WEHI 231 cells were incubated with 0.5 μCi/milliliter [^3H] thymidine for 3 hours, centrifuged, resuspended in 2 milliliters of fresh medium at 2×10^5/milliliter, and incubated in a 24-well plate with additions as indicated. After incubation for 16-18 hours, 1 milliliter aliquots of the cells were centrifuged, washed with 200 μliters PBS. This suspension was drawn into a pipette tip containing 25 μliters of 2% SDS, and the mixture was immediately ejected into a well of a 0.8% agarose TBE gel containing 0.5 μliter/milliliter ethidium bromide. The gel was electrophoresed for 1 hour at 65 volts, destained in water, and photographed under ultraviolet light. The lanes of the gel were cut into three approximately equal portions. […] The gel portions were melted in glass scintillation vials and mixed with a 20 milliliter of scintillation cocktail and counted in a scintillation counter. The amount of fragmented DNA (DNA in the second and third gel pieces) was expressed as a percentage of the total counts recovered in the lane.
Referring to the experiments summarized in FIG. 2a, WEHI 231 cells (2×10^5 per milliliter) were incubated with or without 6 μgrams/milliliter ODN 1760, 10 μgrams/milliliter α-sIgM, or 0.1 μM quinacrine as indicated. Live cells were counted daily. […]

Assay [2] concerns WEHI 231 cells. The experiment in a line: Inhibition of CpG-ODN 1760 protection against α-sIgM-induced inhibition of [3H] thymidine uptake. The class given is cell-based, mouse. The procedure: The assay of [^3H] Thymidine incorporation was carried out as follows. WEHI 231 cells (200 μL at 2×10^5/milliliter, in duplicate or triplicate) were incubated in a 96-well plate (Costar, Cambridge Mass.). Additions were made as indicated. After incubating for 16 hours, 0.5 μCi [methyl-^3H] thymidine (2 Ci/millimole, DuPont NEN, Boston Mass.) was added to each well, and the cells were incubated for another 4 hours. Cellular DNA was then captured onto glass fiber filters (Whatman 934AH) using a cell harvester (Brandel, Gaithersberg Md.). The filters were dried, placed into plastic scintillation vials with 10 milliliters of scintillation cocktail (EconoSafe, Research Products International, Mount Prospect Ill.), and counted in a liquid scintillation counter (Beckman LS-3133 T). The ^3H recovered on the filter was expressed as a fraction of the ^3H added.
Referring to experiments summarized in FIG. 1, WEHI 231 cells (ca. 2×10^5 per milliliter) were incubated for 16 hours at 37° C. with 10 μgrams/milliliter α-sIgM, 6 μgrams/milliliter ODN 1760, and the indicated concentration of the compound. After 16 hours, 0.5 μCi [^3H] thymidine was added. After 4 more hours incubation, the cellular DNA was harvested onto glass fiber filters. The dry filters were counted in a liquid scintillation counter.
Each experimental point was the mean of at least duplicate measurements.
Referring to the experiments summarized in FIG. 3, 10 μgrams/milliliter α-sIgM and the indicated concentrations of ODN 1760 and quinacrine were added simultaneously to WEHI 231 cells. Thymidine incorporation was estimated at 16 hours as described for Example 1.
Referring to the experiments summarized in FIG. 4, WEHI 231 cells were incubated with α-sIgM and ODN 1760. At times thereafter 0.1 μM quinacrine was added (data shown in the left three bars). Cells were incubated with 10 μgrams/milliliter (α-sIgM and ODN 1760 (6 μgrams/milliliter, phosphorothioate or a phosphodiester ODN with the same sequence as 1760 (PD ODN) (30 μM at time 0 hours and 8 hours; data represented in right six bars in FIG. 4). [^3H] thymidine incorporation was estimated at 16 hours.
The symbol — indicates no change. Me and Et indicate —CH3 and —CH2CH3 respectively. Aromatic substituents are in the para position except as indicated. The activity is —log10 of the concentration (M) required for half maximal inhibition of CpG-ODN effect on [^3H] thymidine uptake in the presence of α-sIgM.

Regarding `CCN(CC)CCCC(C)Nc1c2ccc(Cl)cc2nc2ccc(OC)cc12` (stereo not shown) [quinacrine], the “Reversal of ODN 1760 protection, percentage of fragmented DNA (FIG. 2b)” value in assay [1] is reported as “reversed this protection”. In addition, in assay [2] (0.1 μM quinacrine added 8 hours after the CpG-ODN), the “Block of CpG-ODN action on subsequent addition (FIG. 4)” value is on record as “blocked the action of CpG-ODN”. Besides, in assay [2] (0.1 μM quinacrine, PD ODN 30 μM at 0 and 8 hours), the “Block of the action of phosphodiester ODN (FIG. 4)” value is reported as “effective in blocking”. For the same molecule, in assay [2] (Table 3, 9-aminoacridines), the “vs. Chloroquine, fold” value turned out to be 7.76 fold. The “Activity,-log10 (concentration (M) for half maximal inhibition of CpG-ODN effect on [3H] thymidine uptake in the presence of α-sIgM)” value in assay [2] (Table 3, 9-aminoacridines, WEHI 231 cells) amounted to 7.85. For the same molecule, the “Inhibition of the CpG-ODN effect (FIG. 1)” value in assay [2] (at nanomolar concentrations, 10 μg/mL α-sIgM, 6 μg/mL ODN 1760) is “completely inhibited”. The “Inhibition at increasing concentrations of ODN 1760 (non-competitive kinetics, FIG. 3)” value in assay [2] (range of concentrations of ODN 1760 and quinacrine, 10 μg/mL α-sIgM) was “increasing the concentration of ODN 1760 did not overcome the inhibitory effect”.
